{"source": "patent US11098113B2", "about": "“Immunoglobulin single variable domains directed against macrophage migration inhibitory factor” (VIB VZW, priority 2016, dated 2021)", "origin": "cited, not measured here", "test_system": "LPS stimulated RAW264.7 macrophages", "details": "ISO-1 at 10 μM, same in vitro conditions; cited from earlier work"}
{"smiles": "COC(=O)C[C@@H]1CC(c2ccc(O)cc2)=NO1", "note": "(racemic) [ISO-1, (S,R)-3-(4-hydroxyphenyl)-4,5-dihydro-5-isoxazole acetic acid methyl ester]", "values": [{"measurement": "inhibition of TNF production", "result": "about 50%"}]}
